Columns and labels:
[1] = target: FGFR1 kinase domain recombinant protein (Homo sapiens (Human), UniProt P11362); experiment: Inhibition of receptor tyrosine kinase FGFR1 activity (ELISA); format: biochemical
Method: 1. Preliminary Evaluation Inhibition on Receptor Tyrosine Kinase FGFR1 Activity of Compound
1. […] The liquid from the well was discarded. The plate was washed for three times with T-PBS (0.1% Tween-20 in potassium-free PBS, 200 μL/well), 5 minutes for each time. The elisa plate was dried in 37° C. dryer for 1-2 hours.
2. 49 μL of ATP solution diluted in reaction buffer (50 mM HEPES pH 7.4, 50 mM MgCl2, 0.5 mM MnCl2, 0.2 mM Na3VO4, 1 mM DTT) was added into each well, and 1 μL of the test compound was added to each well, and then 50 μL of FGFR1 kinase domain recombinant protein diluted in reaction buffer was added to initiate the reaction, and two control wells without ATP were required for each experiment. The reaction was performed on a Shaker (100 rpm) at 37° C. for 1 hour. The liquid from the well was discarded, and the plate was washed with T-PBS for three times.
3. The antibody PY99 dilution (antibody diluted 1:500 in T-PBS with BSA 5 mg/mL) was added at 100 μL/well, and shaken for 0.5 hours on a 37° C. shaker. The liquid from the well was discarded, and the plate was washed with T-PBS for three times.
4. The horseradish peroxidase-labeled goat anti-mouse second antibody dilution (antibody diluted 1:2000 in T-PBS with BSA 5 mg/mL) was added at 100 μL/well, and shaken for 0.5 hours on a 37° C. shaker. The liquid from the well was discarded, and the plate was washed with T-PBS for three times.
5. 2 mg/mL OPD coloration solution (diluted with 0.1 M citric acid-sodium citrate buffer containing 0.03% H2O2 (pH=5.4)) was added at 100 μL/well, and reacted for 1-10 minutes at 25° C. in darkness.
6. The reaction was quenched with 50 μL/well of 2M H2SO4, and the plate was read using a tunable microplate microplate reader VERSAmax at 490 nm.
The IC50 values were obtained by four-parameter regression analysis using the software supplied with the microplate reader.

Pharmacokinetics in rats = format: in vivo; details: male, rat, plasma, SD rats
Method: Seven SD rats, male, weighing 200-220 g, were randomly divided into two groups, 4 or 3 in each group. Compound S10 was administrated by intragastric or intravenous administration.
Rats were fasted for 12 h before test, and had access to water ad libitum. The rats were uniformly fed 2 h after administration of.
Blood sample time point and sample preparation:
intragastric administration: 0.25, 0.5, 1.0, 2.0, 4.0, 6.0, 8.0 and 24 h after administration;
intravenous administration: 5 min, 0.25, 0.5, 1.0, 2.0, 4.0, 6.0, 8.0 and 24 h after administration;
0.3 mL of venous blood was collected at the above time points via the rat eye vein venous plexus, placed in a heparinized test tube, and centrifuged at 11000 rpm for 5 min, and plasma was separated and frozen in a −20° C. refrigerator.
S10 in rat plasma was determined by LC/MS/MS.
The pharmacokinetic parameters after administration were calculated by a non-compartmental model of WinNonlin 6.3 software (Pharsight, USA).
The peak concentration Cmax and the peak time Tmax are measured values; The area under the curve of the drug-time AUC0-t value: calculated by the trapezoidal method; AUC0-∞=AUC0-t+Ct/ke, Ct is the blood concentration of drug at the last measurable time point;
ke is the elimination rate constant;
Elimination half-life t1/2=0.693/ke;
Clearance rate CL=D/AUC0-∞;
Volume of steady state distribution Vss=CL×MRT;

FGFR1 kinase domain recombinant protein, sequence (P11362 478-767): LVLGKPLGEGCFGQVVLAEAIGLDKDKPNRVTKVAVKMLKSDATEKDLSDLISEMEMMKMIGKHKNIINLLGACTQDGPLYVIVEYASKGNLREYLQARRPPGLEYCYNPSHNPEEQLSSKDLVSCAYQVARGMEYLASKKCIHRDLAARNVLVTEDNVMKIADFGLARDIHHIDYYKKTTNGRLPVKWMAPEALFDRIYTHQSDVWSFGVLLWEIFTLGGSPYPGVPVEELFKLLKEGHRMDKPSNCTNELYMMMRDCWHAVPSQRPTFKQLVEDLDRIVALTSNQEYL

With `CNC(=O)c1cccc2cc(Oc3ccnc(NC(=O)c4ccc(N5C[C@@H](C)N[C@@H](C)C5)cc4)c3)ccc12` [Compound S10] the IC50 [1] was < 10 nM, the inhibition at 0.1 µM ([1]; 1 h, read-out: Inhibition ratio (%) @ 0.1 μM) was 94% and the bioavailability (Pharmacokinetics in rats; oral, intragastric 10 mg/kg vs intravenous 5 mg/kg) was 79.6%. It also gave an AUC(0-t) (Pharmacokinetics in rats; po, intragastric 10 mg/kg) of 3430 ng·h/mL, a Cmax (Pharmacokinetics in rats; po, intragastric 10 mg/kg) of 399 ng/mL and a Tmax (Pharmacokinetics in rats; po, intragastric 10 mg/kg) of 4.5 h. The half-life (Pharmacokinetics in rats; po, intragastric 10 mg/kg) was 3.55 h, the clearance (Pharmacokinetics in rats; intravenous 5 mg/kg) was 40.8 mL/min/kg and the half-life (Pharmacokinetics in rats; intravenous 5 mg/kg) was 3.69 h. For the same compound, the Vd (Pharmacokinetics in rats; intravenous 5 mg/kg, read-out: Vss) was 11.3 L/kg.
